Experimental data reported in patent US7759362B2, “Quinolonecarboxylic acid compounds, preparation methods and pharmaceutical uses thereof” (Institut of Medicinal Biotechnology Chinese Academy of …, priority 2004, dated 2010).
Values after ≈ are worked out from the molar mass of the structure shown.

Experiments:
S. aureus ATTC 25923 = experiment: MIC, two-fold plate dilution method; format: cell-based; conditions: S. aureus ATTC 25923, Gram-positive; Muener-Hinton medium
From the text: (§1) Two-fold plate dilution method is used for determination of activity, with Muener-Hinton medium (DIFCO) as the culture medium and clinically isolated pathogenic strain, quality control strain and standard strain (provided by National Institute for the Control of Pharmaceutical and Biological Products) as test strains.

E. coli ATTC 25922 = experiment: MIC, two-fold plate dilution method; format: cell-based; conditions: E. coli ATTC 25922, Gram-negative; Muener-Hinton medium
From the text: (§2) . The pharmaceutically acceptable salts or hydrates thereof have the same antibacterial activity.
as §1

S. epidermidis 26069 = experiment: MIC, two-fold plate dilution method; format: cell-based; conditions: S. epidermidis 26069, Gram-positive; Muener-Hinton medium
From the text: as §2, §1

S. pyogenes 26 = experiment: MIC, two-fold plate dilution method; format: cell-based; conditions: S. pyogenes 26, Gram-positive; Muener-Hinton medium
From the text: as §2, §1

S. pneumoniae 70 = experiment: MIC, two-fold plate dilution method; format: cell-based; conditions: S. pneumoniae 70, Gram-positive; Muener-Hinton medium
From the text: as §2, §1

K. pneumoniae 14 = experiment: MIC, two-fold plate dilution method; format: cell-based; conditions: K. pneumoniae 14, Gram-negative; Muener-Hinton medium
From the text: as §2, §1

K. pneumoniae 7 = experiment: MIC, two-fold plate dilution method; format: cell-based; conditions: K. pneumoniae 7, Gram-negative; Muener-Hinton medium
From the text: as §2, §1

E. coli 26 = experiment: MIC, two-fold plate dilution method; format: cell-based; conditions: E. coli 26, Gram-negative; Muener-Hinton medium
From the text: as §2, §1

Enterococcus 755 = experiment: MIC, two-fold plate dilution method; format: cell-based; conditions: Enterococcus 755, Gram-positive; Muener-Hinton medium
From the text: as §2, §1

P. aeruginosa 17 = experiment: MIC, two-fold plate dilution method; format: cell-based; conditions: P. aeruginosa 17, Gram-negative; Muener-Hinton medium
From the text: as §2, §1

S. pneumoniae 98 = experiment: MIC, two-fold plate dilution method; format: cell-based; conditions: S. pneumoniae 98, Gram-positive; Muener-Hinton medium
From the text: as §2, §1

[1] = Acute oral toxicity in mice; conditions: mouse, in vivo, male mice, deaths after 7 days, Bliss program
Method: Toxicity experiments are carried out on the compounds prepared in embodiment 11, 13 and 15 to determine the acute oral toxicity of the present compounds. Solutions of the three compounds in different concentrations are administered to male mice at a dosage of 0.1 mL/10 g body weight, then the number of dead mice after 7 days is recorded, and lethal dose 50% (LD50) is calculated for each compound by Bliss program.

S. pneumoniae = conditions: compared with gatifloxacin; cited from earlier work

**Q.** With `Cl.O=C(O)c1cn(C2CC2)c2c(OC(F)F)c(N3C[C@H]4CCCN[C@H]4C3)c(F)cc2c1=O` [Embodiment 14, 1-cyclopropyl-8-difluoromethoxyl-7-[(1R,6R)-2,8-diazabicyclo[4,3,0]nonane-8-yl]-6-fluoro-1,4-dihydro-4-oxoquinoline-3-carboxylic acid hydrochloride] as the compound, how does the MIC (S. aureus ATTC 25923) read?
**A.** Its MIC is 0.03 µg/mL.

**Q.** And the MIC (E. coli ATTC 25922)?
**A.** The MIC was 0.015 µg/mL.

**Q.** What about the MIC (S. epidermidis 26069) of the same compound?
**A.** The MIC was 0.5 µg/mL.

**Q.** And the MIC (S. pyogenes 26)?
**A.** The MIC was 0.5 µg/mL.

**Q.** What about the MIC (S. pneumoniae 70) of the same compound?
**A.** Its MIC is 0.06 µg/mL.

**Q.** And the MIC (K. pneumoniae 14)?
**A.** Its MIC is 0.03 µg/mL.

**Q.** And the MIC (K. pneumoniae 7)?
**A.** Its MIC is 0.03 µg/mL.

**Q.** And the MIC (E. coli 26)?
**A.** The MIC was 0.03 µg/mL.

**Q.** And the MIC (Enterococcus 755)?
**A.** Its MIC is 0.25 µg/mL.

**Q.** And the MIC (P. aeruginosa 17)?
**A.** The MIC was 1 µg/mL.

**Q.** What about the MIC (S. pneumoniae 98) of the same compound?
**A.** The MIC was 0.015 µg/mL.

**Q.** Which results are given for `COc1c(N2C[C@@H]3CCCN[C@@H]3C2)c(F)cc2c(=O)c(C(=O)O)cn(C3CC3)c12` [Moxifloxacin, moxifloxacin, reference compound]?
**A.** MIC (S. aureus ATTC 25923): 0.06 µg/mL (≈ 0.149 µM); MIC (E. coli ATTC 25922): 0.03 µg/mL (≈ 0.0747 µM); MIC (S. epidermidis 26069): 0.5 µg/mL (≈ 1.25 µM); MIC (S. pyogenes 26): 0.5 µg/mL (≈ 1.25 µM); MIC (S. pneumoniae 70): 0.125 µg/mL (≈ 0.311 µM); MIC (K. pneumoniae 14): 0.03 µg/mL (≈ 0.0747 µM); MIC (K. pneumoniae 7): 0.03 µg/mL (≈ 0.0747 µM); MIC (E. coli 26): 0.03 µg/mL (≈ 0.0747 µM); MIC (Enterococcus 755): 0.5 µg/mL (≈ 1.25 µM); MIC (P. aeruginosa 17): 0.5 µg/mL (≈ 1.25 µM); MIC (S. pneumoniae 98): 0.125 µg/mL (≈ 0.311 µM)

**Q.** Which LD50 at 7 days [1] does the source give for `Cl.O=C(O)c1cn(C2CC2)c2c(OC(F)F)c(N3C[C@@H]4CCCN[C@@H]4C3)c(F)cc2c1=O` [Embodiment 13, 1-cyclopropyl-8-difluoromethoxyl-7-[(1S,6S)-2,8-diazabicyclo[4,3,0]nonane-8-yl]-6-fluoro-1,4-dihydro-4-oxoquinoline-3-carboxylic acid hydrochloride] here?
**A.** Its LD50 at 7 days is > 4000 mg/kg.

**Q.** What about the MIC (S. aureus ATTC 25923) of the same compound?
**A.** The MIC was 0.03 µg/mL.

**Q.** And the MIC (E. coli ATTC 25922)?
**A.** Its MIC is 0.015 µg/mL.

**Q.** What about the MIC (S. epidermidis 26069) of the same compound?
**A.** Its MIC is 0.25 µg/mL.

**Q.** And the MIC (S. pyogenes 26)?
**A.** Its MIC is 0.25 µg/mL.

**Q.** What about the MIC (S. pneumoniae 70) of the same compound?
**A.** The MIC was 0.125 µg/mL.

**Q.** And the MIC (K. pneumoniae 14)?
**A.** The MIC was 0.015 µg/mL.

**Q.** What about the MIC (K. pneumoniae 7) of the same compound?
**A.** The MIC was 0.015 µg/mL.

**Q.** And the MIC (E. coli 26)?
**A.** The MIC was 0.015 µg/mL.

**Q.** What about the MIC (Enterococcus 755) of the same compound?
**A.** The MIC was 0.25 µg/mL.

**Q.** What about the MIC (P. aeruginosa 17) of the same compound?
**A.** The MIC was 0.25 µg/mL.

**Q.** And the MIC (S. pneumoniae 98)?
**A.** The MIC was 0.015 µg/mL.

**Q.** For `Cl.Nc1c(F)c(N2C[C@@H]3CCCN[C@@H]3C2)c(OC(F)F)c2c1c(=O)c(C(=O)O)cn2C1CC1` [Embodiment 17, 5-amino-1-cyclopropyl-8-difluoromethoxyl-7-[(1S,6S)-2,8-diazabicyclo[4,3,0]nonane-8-yl]-6-fluoro-1,4-dihydro-4-oxoquinoline-3-carboxylic acid hydrochloride], which LD50 at 7 days [1] is on record?
**A.** The LD50 at 7 days was > 4000 mg/kg.

**Q.** And the MIC (S. aureus ATTC 25923)?
**A.** Its MIC is 0.03 µg/mL.

**Q.** And the MIC (E. coli ATTC 25922)?
**A.** Its MIC is 0.051 µg/mL.

**Q.** What about the MIC (S. epidermidis 26069) of the same compound?
**A.** The MIC was 0.25 µg/mL.

**Q.** And the MIC (S. pyogenes 26)?
**A.** Its MIC is 0.25 µg/mL.

**Q.** What about the MIC (S. pneumoniae 70) of the same compound?
**A.** The MIC was 0.015 µg/mL.

**Q.** What about the MIC (K. pneumoniae 14) of the same compound?
**A.** The MIC was 0.015 µg/mL.

**Q.** What about the MIC (K. pneumoniae 7) of the same compound?
**A.** The MIC was 0.015 µg/mL.

**Q.** And the MIC (E. coli 26)?
**A.** Its MIC is 0.015 µg/mL.

**Q.** And the MIC (Enterococcus 755)?
**A.** The MIC was 0.015 µg/mL.

**Q.** What about the MIC (P. aeruginosa 17) of the same compound?
**A.** Its MIC is 0.25 µg/mL.

**Q.** And the MIC (S. pneumoniae 98)?
**A.** Its MIC is 0.015 µg/mL.

**Q.** With `O=C(O)c1cn(C2CC2)c2cc(N3CCNCC3)c(F)cc2c1=O` [Ciprofloxacin, ciprofloxacin, reference compound] as the compound, how does the MIC (K. pneumoniae 7) read?
**A.** The MIC was 0.015 g/mL.

**Q.** Which MIC (S. aureus ATTC 25923) does the source give for `Cl.Nc1c(F)c(N2C[C@H]3CCCN[C@H]3C2)c(OC(F)F)c2c1c(=O)c(C(=O)O)cn2C1CC1` [Embodiment 18, 5-Amino-1-cyclopropyl-8-difluoromethoxyl-7-[(1R,6R)-2,8-diazabicyclo[4,3,0]nonane-8-yl]-6-fluoro-1,4-dihydro-4-oxoquinoline-3-carboxylic acid hydrochloride] here?
**A.** Its MIC is 0.06 µg/mL.

**Q.** And the MIC (E. coli ATTC 25922)?
**A.** Its MIC is 0.015 µg/mL.

**Q.** What about the MIC (S. epidermidis 26069) of the same compound?
**A.** The MIC was 0.25 µg/mL.

**Q.** And the MIC (S. pyogenes 26)?
**A.** Its MIC is 0.25 µg/mL.

**Q.** And the MIC (S. pneumoniae 70)?
**A.** The MIC was 0.03 µg/mL.

**Q.** And the MIC (K. pneumoniae 14)?
**A.** The MIC was 0.015 µg/mL.

**Q.** And the MIC (K. pneumoniae 7)?
**A.** The MIC was 0.015 µg/mL.

**Q.** And the MIC (E. coli 26)?
**A.** Its MIC is 0.015 µg/mL.

**Q.** What about the MIC (Enterococcus 755) of the same compound?
**A.** The MIC was 0.06 µg/mL.

**Q.** And the MIC (P. aeruginosa 17)?
**A.** Its MIC is 0.25 µg/mL.

**Q.** And the MIC (S. pneumoniae 98)?
**A.** Its MIC is 0.125 µg/mL.

**Q.** For `C[C@H]1NCc2cc(-c3ccc4c(=O)c(C(=O)O)cn(C5CC5)c4c3OC(F)F)ccc21` [Embodiment T-3811], which “in vitro activity against S. pneumoniae (in words)” value (S. pneumoniae) is on record?
**A.** Its value is “enhanced in vitro activity against S. pneumoniae, even superior to gatifloxacin”.

**Q.** Which results are given for `Cl.O=C(O)c1cn(C2CC2)c2c(OC(F)F)c(N3C[C@@H]4CCCN[C@@H]4C3)c(F)cc2c1=O` (relative stereo) [Embodiment 15, 1-Cyclopropyl-8-difluoromethoxyl-7-[cis-2,8-diazabicyclo[4,3,0]nonane-8-yl]-6-fluoro-1,4-dihydro-4-oxoquinoline-3-carboxylic acid hydrochloride]?
**A.** LD50 at 7 days [1]: > 4000 mg/kg; MIC (S. aureus ATTC 25923): 0.125 µg/mL; MIC (E. coli ATTC 25922): 0.25 µg/mL; MIC (S. epidermidis 26069): 0.5 µg/mL; MIC (S. pyogenes 26): 0.25 µg/mL; MIC (S. pneumoniae 70): 0.06 µg/mL; MIC (K. pneumoniae 14): 0.03 µg/mL; MIC (K. pneumoniae 7): 0.03 µg/mL; MIC (E. coli 26): 0.03 µg/mL; MIC (Enterococcus 755): 0.25 µg/mL; MIC (P. aeruginosa 17): 0.5 µg/mL; MIC (S. pneumoniae 98): 0.125 µg/mL

**Q.** With `Nc1c(F)c(N2C[C@@H]3CCCN[C@@H]3C2)c(OC(F)F)c2c1c(=O)c(C(=O)O)cn2C1CC1` (relative stereo) [Embodiment 21, 5-Amino-1-cyclopropyl-8-difluoromethoxyl-7-(cis-2,8-diazabicyclo[4,3,0]nonane-8-yl)-6-fluoro-1,4-dihydro-4-oxoquinoline-3-carboxylic acid] as the compound, how does the MIC (S. aureus ATTC 25923) read?
**A.** Its MIC is 0.03 µg/mL (≈ 0.0663 µM).

**Q.** What about the MIC (E. coli ATTC 25922) of the same compound?
**A.** The MIC was < 0.007 µg/mL.

**Q.** What about the MIC (S. epidermidis 26069) of the same compound?
**A.** Its MIC is 0.25 µg/mL (≈ 0.553 µM).

**Q.** What about the MIC (S. pyogenes 26) of the same compound?
**A.** Its MIC is 0.25 µg/mL (≈ 0.553 µM).

**Q.** And the MIC (S. pneumoniae 70)?
**A.** The MIC was 0.06 µg/mL (≈ 0.133 µM).

**Q.** And the MIC (K. pneumoniae 14)?
**A.** The MIC was 0.015 µg/mL (≈ 0.0332 µM).

**Q.** And the MIC (K. pneumoniae 7)?
**A.** The MIC was 0.015 µg/mL (≈ 0.0332 µM).

**Q.** What about the MIC (E. coli 26) of the same compound?
**A.** Its MIC is < 0.007 µg/mL.

**Q.** And the MIC (Enterococcus 755)?
**A.** Its MIC is 0.25 µg/mL (≈ 0.553 µM).

**Q.** And the MIC (P. aeruginosa 17)?
**A.** The MIC was 0.25 µg/mL (≈ 0.553 µM).

**Q.** And the MIC (S. pneumoniae 98)?
**A.** The MIC was 0.03 µg/mL (≈ 0.0663 µM).
